Assay results reported in paper PMC7487730, “Design, synthesis and biological evaluation of novel benzodioxole derivatives as COX inhibitors and cytotoxic agents” (BMC Chemistry, 2020).
Like-named read-outs stand apart in the source and are kept apart here.

Key:
[1] = MTS cytotoxicity assay on HeLa cells; type: cell-based; details: human
Method: An MTS assay was used to determine the cytotoxic effect of Benzodioxole derivatives on HeLa (cervical carcinoma cells).
All chemicals were purchased from Sigma-Aldrich and Alfa Aesar. Melting points were determined with an SMP-II Digital Melting Point Apparatus and are uncorrected. IR spectra were obtained using a Perkin Elmer Spectrum 400 FTIR/FTNIR spectrometer. ^1H-NMR and ^13C-NMR spectra were recorded in DMSO-d6 and were performed on two NMR instruments. The first was a Bruker 500 MHz-Avance III High-Performance Digital FT-NMR spectrometer at the Faculty of Science, Department of Chemistry, The University of Jordan, Jordan (it was used for the ^1H-NMR of just one compound, 3e). The second was a Bruker 300 MHz-Avance III High-Performance Digital FT-NMR spectrometer at the NMR facility at the Doping and Narcotics Analysis Laboratory of the faculty of pharmacy, Anadolu University, Turkey (it was used for both ^1H-NMR and ^13C-NMR for the other compounds). Tetramethylsilane was used as the internal standard. All chemical shifts were recorded as d (ppm). […] The yellow product of this enzymatic reaction was determined using a UV spectrophotometer with a Microplate Reader (BioRad, Japan) at a wavelength of 415 nm. HeLa Cervical Carcinoma cell line was purchased from ATCC (ATCC® CCL-2™), and the cyototoxicty test of the cell viability was assessed by the CellTilter 96® Aqueous One Solution Cell Proliferation (MTS) assay according to the manufacturer’s instructions (Promega Corporation, Madison, WI) (Additional file 1).
HeLa Cervical Carcinoma was cultured in RPMI-1640 media and supplemented with 10% fetal bovine serum, 1% penicillin/streptomycin antibiotics and 1% L-glutamine. Cells were grown in a humidified atmosphere with 5% CO2 at 37 °C, and they were seeded in 2.6 × 10^4 cells/well in a 96-well plate. After 48 h, the cells were confluent, the media was changed, and cells were incubated with four concentrations (2, 1, 0.5, and 0.2 mM) of the tested compounds for 24 h. Cell viability was assessed by the CellTilter 96® Aqueous One Solution Cell Proliferation (MTS) Assay according to the manufacturer’s instructions (Promega Corporation, Madison, WI). Briefly, at the end of the treatment, 20 μL of MTS solution per 100 μL of media was added to each well and incubated at 37 °C for 2 h. Absorbance was measured at 490 nm.

human recombinant COX2 = target: T1, human recombinant COX2 (Homo sapiens, UniProt P35354); assay: COX inhibitor screening assay kit (Cayman No. 560131), COX2; type: biochemical; details: for COX1/COX2 Ratio Selectivity: ratio of IC50 COX1 to IC50 COX2; for IC50: run in duplicate with three concentrations (50, 20, and 5 µM)
T1 construct: purchased Cayman Chemical 560131 (kit)
T1 sequence (P35354 18-604): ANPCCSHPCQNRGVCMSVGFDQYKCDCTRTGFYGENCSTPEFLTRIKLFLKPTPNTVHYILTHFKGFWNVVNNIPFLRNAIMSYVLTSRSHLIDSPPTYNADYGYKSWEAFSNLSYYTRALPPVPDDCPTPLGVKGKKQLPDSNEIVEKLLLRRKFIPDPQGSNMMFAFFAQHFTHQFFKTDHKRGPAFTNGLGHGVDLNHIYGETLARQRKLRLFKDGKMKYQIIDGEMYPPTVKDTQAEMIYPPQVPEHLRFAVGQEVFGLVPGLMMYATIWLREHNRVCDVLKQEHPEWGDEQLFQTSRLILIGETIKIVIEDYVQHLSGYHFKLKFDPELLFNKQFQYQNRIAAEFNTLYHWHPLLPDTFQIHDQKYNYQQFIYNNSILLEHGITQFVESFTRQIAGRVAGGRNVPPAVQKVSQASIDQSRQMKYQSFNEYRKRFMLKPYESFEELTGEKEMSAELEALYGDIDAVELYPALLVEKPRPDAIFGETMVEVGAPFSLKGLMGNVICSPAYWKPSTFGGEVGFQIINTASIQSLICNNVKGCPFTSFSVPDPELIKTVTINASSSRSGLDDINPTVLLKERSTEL

ovine COX1 = target: T2, ovine COX1 (Ovis aries, UniProt P05979); assay: COX inhibitor screening assay kit (Cayman No. 560131), COX1; type: biochemical
T2 construct: purchased Cayman Chemical 560131 (kit)
T2 sequence (P05979 25-600): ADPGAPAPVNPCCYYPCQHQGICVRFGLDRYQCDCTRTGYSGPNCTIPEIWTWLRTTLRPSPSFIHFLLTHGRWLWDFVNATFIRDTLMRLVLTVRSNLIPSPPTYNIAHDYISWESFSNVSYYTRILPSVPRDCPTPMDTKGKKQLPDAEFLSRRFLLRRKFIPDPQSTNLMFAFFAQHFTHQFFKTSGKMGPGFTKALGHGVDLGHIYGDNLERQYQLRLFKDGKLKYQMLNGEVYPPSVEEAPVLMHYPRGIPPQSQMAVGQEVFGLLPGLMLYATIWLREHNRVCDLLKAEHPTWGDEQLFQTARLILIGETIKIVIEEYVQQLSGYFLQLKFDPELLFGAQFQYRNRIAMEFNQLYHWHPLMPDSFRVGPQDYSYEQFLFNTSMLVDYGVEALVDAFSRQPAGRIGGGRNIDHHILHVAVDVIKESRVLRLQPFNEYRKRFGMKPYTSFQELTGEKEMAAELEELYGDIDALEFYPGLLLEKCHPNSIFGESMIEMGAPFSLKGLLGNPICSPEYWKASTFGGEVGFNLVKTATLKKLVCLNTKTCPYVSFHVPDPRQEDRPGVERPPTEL
Method: All chemicals were purchased from Sigma-Aldrich and Alfa Aesar. Melting points were determined with an SMP-II Digital Melting Point Apparatus and are uncorrected. IR spectra were obtained using a Perkin Elmer Spectrum 400 FTIR/FTNIR spectrometer. ^1H-NMR and ^13C-NMR spectra were recorded in DMSO-d6 and were performed on two NMR instruments. […] The second was a Bruker 300 MHz-Avance III High-Performance Digital FT-NMR spectrometer at the NMR facility at the Doping and Narcotics Analysis Laboratory of the faculty of pharmacy, Anadolu University, Turkey (it was used for both ^1H-NMR and ^13C-NMR for the other compounds). Tetramethylsilane was used as the internal standard. All chemical shifts were recorded as d (ppm). […] HeLa Cervical Carcinoma cell line was purchased from ATCC (ATCC® CCL-2™), and the cyototoxicty test of the cell viability was assessed by the CellTilter 96® Aqueous One Solution Cell Proliferation (MTS) assay according to the manufacturer’s instructions (Promega Corporation, Madison, WI) (Additional file 1).
The assay was run in duplicate with three concentrations (50, 20, and 5 µM). […] The percentage inhibition of the three concentrations was used to calculate the IC50 [16].

[2] = HeLa cervical carcinoma cells (ATCC CCL-2), HeLa, 24 h incubation, MTS, read-out: HeLa Cell CC50 in milli-molar
[3] = run in duplicate with three concentrations (50, 20, and 5 µM), read-out: The IC50 in µM of COX1

melting point [°C]	COX1/COX2 Ratio Selectivity (human recombinant COX2)	IC50 (human recombinant COX2) [µM]	IC50 (ovine COX1; [3]) [µM]	IC50 (ovine COX1; The IC50 in µM of COX1, run in duplicate with three concentrations (50, 20, and 5 µM)) [µM]	Compound	CC50 at 24 h [1, 2] [µM]	CC50 at 24 h [1] [µM]
147 to 149	0.250	30.7	7.67	–	O=C(O)Cc1cc2c(cc1C(=O)c1ccccc1I)OCO2 [4b, 2-(6-(2-iodobenzoyl)benzo[d][1,3]dioxol-5-yl)acetic acid]	697	–
184.5 to 186.5	0.434	3.34	1.45	–	O=C(O)Cc1cc2c(cc1C(=O)c1ccccc1)OCO2 [4a, 2-(6-benzoylbenzo[d][1,3]dioxol-5-yl)acetic acid]	1940	–
239.5 to 241.5	0.861	39.1	33.7	–	O=C(O)Cc1cc2c(cc1C(=O)c1ccc(I)cc1)OCO2 [4c, 2-(6-(4-iodobenzoyl)benzo[d][1,3]dioxol-5-yl)acetic acid]	1050	–
168.5 to 170	0.169	4.29	0.725	–	O=C(O)Cc1cc2c(cc1C(=O)c1ccc(Cl)cc1Cl)OCO2 [4f, 2-(6-(2,4-dichlorobenzoyl)benzo[d][1,3]dioxol-5-yl)acetic acid]	1020	–
154 to 156	0.144	49.3	7.11	–	O=C(O)Cc1cc2c(cc1C(=O)c1cccc(Br)c1)OCO2 [4e, 2-(6-(3-bromobenzoyl)benzo[d][1, 3]dioxol-5-yl)acetic acid]	437	–
145 to 147	1.809	2.35	4.25	–	O=C(O)Cc1cc2c(cc1C(=O)c1ccccc1Br)OCO2 [4d, 2-(6-(2-bromobenzoyl)benzo[d][1,3]dioxol-5-yl)acetic acid]	547	–

The next lines start with the molecule.

Compound	melting point [°C]	COX1/COX2 Ratio Selectivity (human recombinant COX2)	IC50 (human recombinant COX2) [µM]	IC50 (ovine COX1; [3]) [µM]	IC50 (ovine COX1; The IC50 in µM of COX1, run in duplicate with three concentrations (50, 20, and 5 µM)) [µM]	CC50 at 24 h [1, 2] [µM]	CC50 at 24 h [1] [µM]
COC(=O)Cc1cc2c(cc1C(=O)c1ccccc1Br)OCO2 [3d, Methyl 2-(6-(2-bromobenzoyl)benzo[d][1,3]dioxol-5-yl)acetate]	85 to 87	0.897	1.45	–	–	1610	–
COC(=O)Cc1cc2c(cc1C(=O)c1ccc(I)cc1)OCO2 [3c, Methyl 2-(6-(4-iodobenzoyl)benzo[d][1,3]dioxol-5-yl)acetate]	119 to 121	0.723	37.5	27.1	–	1790	–
COC(=O)Cc1cc2c(cc1C(=O)c1cccc(Br)c1)OCO2 [3e, Methyl 2-(6-(3-bromobenzoyl)benzo[d][1, 3]dioxol-5-yl)acetate]	72.5 to 74.5	0.864	2.73	2.36	–	–	219
COC(=O)Cc1cc2c(cc1C(=O)c1ccccc1I)OCO2 [3b, Methyl 2-(6-(2-iodobenzoyl)benzo[d][1,3]dioxol-5-yl)acetate]	–	0.862	1.3	1.12	–	228	–
COC(=O)Cc1cc2c(cc1C(=O)c1ccccc1)OCO2 [3a, Methyl 2-(6-benzoylbenzo[d][1,3]dioxol-5-yl)acetate]	–	0.859	14.3	12.3	–	1490	–
COC(=O)Cc1cc2c(cc1C(=O)c1ccc(Cl)cc1Cl)OCO2 [3f, Methyl 2-(6-(2,4-dichlorobenzoyl)benzo[d][1, 3]dioxol-5-yl)acetate]	95 to 97	–	–	–	–	–	–
CC(C(=O)O)c1cccc(C(=O)c2ccccc2)c1 (stereo not drawn) [Ketoprofen, reference compound]	–	–	–	–	0.031	–	–
